# Entries after “also recorded” stand apart in the source; their conditions may differ.
# Columns and labels:
# [1] = system: C2/C12 Ras tumors; experiment: Tumor uptake of 64Cu-labeled cathepsin probes in tumor-bearing mice (FIG. 7); type: in vivo, mouse; settings: 64Cu-labeled probe; for tumor uptake after 2 hrs / tumor uptake after 24 hours: IV
# Procedure: Mice bearing tumors derived from […] C2/C12 Ras transformed cells were IV injected with ^64Cu-labeled probes. Images and total probe accumulation in tumors (arrows) is shown. For purposes of reproduction, the image is converted to black and white and reversed.
# Essentially, two to four weeks prior to imaging MDA-MB 231 or C2C12/ras cells (a myoblast cell line wherein ras blocks differentiation) at 2×10^6 cell per spot were injected subcutaneous to the back of Balb-c nude mice.
# Mice bearing tumors of similar size were injected intravenous via the tail vein with a DMSO/PBS solution of the compound to be tested. DMSO/PBS was locally injected directly into tumors in indicated mice, 15 minutes prior to probe injection. Fluorescent intensity as photons per second per centimeter square per steradian (p/s/cm2/sr) was recorded from living mice. Images were taken at various time points after probe injection using an IVIS 200 imaging system equipped with a Cy5.5 filter. Other protocols are known and may be adapted for administration and imaging in vivo using the present compounds. Another protocol for mouse studies is given in Joyce et al. “Cathepsin cysteine proteases are effectors of invasive growth and angiogenesis during multistage tumorigenesis,” Cancer Cell 5:443-452 (May 2004), at page 452.
# In an initial attempt to make PET compatible cathepsin probes, a Cy5 tag was replaced with a group that could be used to bind ^64Cu. This was compound ^64Cu-DOTA-FFK-AOMK (GB172). […] Without wishing to be bound by any theory, it was reasoned that this poor accumulation in tumors was likely due to changes in the pharmacokinetic (PK) and cell permeability properties as the result of removal of the large, hydrophobic fluorophore molecule. While the improved uptake of the probe having both the macrocyclic chelator and the polyaromatic functionality (Cy5), it is thought that the combination of a bulky chelator and a substituted polyaromatic provided the probe molecule with provided a balance of mass, charge and hydrophobicity that gave the probe increased permeability through the outer lipid membranes of the cells. Following this logic, a version of GB-123 that retains the Cy5 fluorophore and also contains a site for attachment of the PET imaging tag was prepared. This was 64 Cu (GB170).
# [2] = system: cathepsins B and L; experiment: Labeling of intact tumor cells (SDS-PAGE, gel scan); type: cell-based, mouse (C2C12/Ras), human (MDA-MB-435)
# Description: FIG. 2 is a series of figures which, taken together, show the structure and function of representative in vivo probes. FIG. 2A is a schematic drawing of a chelator—conjugated probe, illustrating several component moieties. FIGS. 2B and 2C are gels showing expression and activity of enzyme targets of such probe, with a radionuclide label attached to the illustrated structure, showing the expression and activity of CB in a mouse myoblast cell line C2C12Ras and human breast cancer cell line MDA-MB-435. […] Cells were pretreated with JPM-OEt (50 μM) (+) or with control DMSO (0.1%) (−) for 2 h and labeled by addition of ^64Cu-Z-FK(DOTA)-AOMK (555 KBq, 15 μCi) to culture medium for 2 h. Cells were collected, lysed and analyzed after SDS-PAGE. The labeled proteases were visualized by scanning of the gel with a Typhoon 9410 imager.
# Before applying the radiolabel probe in vivo we first tested the ability of the probe to label multiple tumor cell lines grown in vitro. We initially examined the labeling of the human breast cancer cell line MBA-MB-435 and a mouse myoblastoma cell line that had been transformed by overexpression of the ras oncogene (C2C12/Ras). Both of these cell lines were used for in vivo imaging studies with the NIRF-labeled cysteine cathepsin probes. To confirm earlier studies of these cells using the NIRF probes we labeled them with general Cy5-labeled probe GB123 (FIG. 1C). […] Labeling of the same cells with ^64Cu-Z-FK(DOTA)-AOMK confirmed that the DOTA produced a similar labeling pattern to that observed for the NIRF probe GB123.
# C2C12/Ras and MDA-MB-435 cells (0.25 M each well) were seeded in a six-well plate one day before the study. Cells were pretreated with the general papain family protease inhibitor JPM-OEt (50 μM^28) or with control DMSO (0.1%) for 1 h and labeled by addition of ^64Cu-Z-FK(DOTA)-AOMK (555 KBq, 15 μCi) to culture medium for 2 h. Cells was then washed with PBS and lysed. Equal amounts of protein per lane were separated by 12% SDS-PAGE. […] The labeled bands were quantified with ImageJ 1.36b (public domain software from National Institute of Health).
# [3] = system: C2C12/Ras tumors; experiment: Biodistribution in nude mice bearing subcutaneous C2C12/Ras tumors; type: in vivo, mouse; settings: C2C12/Ras tumor mice, i.v. 740 kBq
# Procedure: All animal studies were carried out in compliance with Federal and local institutional rules for the conduct of animal experimentation. Female athymic nude mice (nu/nu) were obtained from Charles River Laboratories (Boston, Mass.) at 7-8 weeks old and kept under sterile conditions. The nude mice were inoculated subcutaneously in the right shoulder with 2×10^6 cultured C2C12/Ras cells or 5×10^6 MDA-MB-435 cells. When the tumors reach 0.5-0.8 cm in diameter, the tumor bearing mice were subjected to in vivo biodistribution studies. For biodistribution studies, the mice bearing C2C12/Ras or MDA-MB-435 tumor xenografts (n=3 for each group) were injected with 740 KBq (20 μCi) of ^64Cu labeled tracer through the tail vein and sacrificed at different time points post injection (p.i.). Tumor and normal tissues of interest were removed and weighed, and their radioactivity was measured in a gamma-counter. The radioactivity uptake in the tumor and normal tissues was expressed as a percentage of the injected radioactive dose per gram of tissue (% ID/g).
# We next examined the overall biodistribution of ^64Cu-Z-FK(DOTA)-AOMK using athymic nude mice carrying subcutaneously grafted C2C12/Ras and MDA-MB-435 tumors. […] Importantly, we observed rapid accumulation of radioactivity in the C2C12/Ras tumors expressing high levels of cysteine cathepsins (0.35±0.13% ID/g at 0.5 h p.i.). This activity remained in the tumors resulting in an uptake of 0.27±0.05% ID/g at 24 h p.i. For the MDA-MB-435 tumors with lower cysteine cathepsin expression, tumor uptake was approximately 2 fold lower at each time point relative to the C2C12/Ras tumors (P<0.05). […] The highest radioactivity was found in the liver due to high endogenous expression of various cysteine cathepsins. Moderate renal accumulation was also observed at all times in both tumor models.
# Data are expressed as the percentage administered activity (injected dose) per gram of tissue (% ID/g) after intravenous injection of 740 kBq (20 μCi) of ^64Cu-Z-FK(DOTA)-AOMK at 0.5, 2, and 24 h pi (n=3). Significant lower tumor uptake and tumor/blood, tumor/muscle ratio in MDA-MB-435 breast cancer (P<0.05) were observed.
# [4] = Octanol/water partition coefficient; type: physicochemical; settings: octanol / PBS pH 7.4, repeated 3 times
# Procedure: Octanol/water partition coefficient. To determine the lipophilicity of ^64Cu-Z-FK(DOTA)-AOMK, approximately 370 kBq of ^64Cu-labeled complex in 500 μl of PBS (pH 7.4) was added to 500 μl of octanol in an eppendorf microcentrifuge tube. The resulting biphasic system was mixed vigorously for 10 min and left at room temperature for another 60 min. The two phases were then separated by centrifugation at 2000 g for 5 min (model 5415R Eppendorf microcentrifuge; Brinkman, Westbury, N.Y.). From each layer, an aliquot of 100 μl was removed and counted in a γ-counter (Packard Instruments). The partition coefficient (log P) was then calculated as a ratio of counts in the octanol fraction to the counts in the water fraction. The experiment was repeated 3 times. The lipophilicity of the probe affects its in vivo pharmacokinetics, and should be modest (˜0), with hydrophobic and hydrophilic groups present. For further details, see Lin et al., “Role of Pharmacokinetics and Metabolism in Drug Discovery and Development,” Pharmacological Reviews, Vol. 49, Issue 4, 403-449, December 1997.
# [5] = system: Cathepsin Z, H, J, C; settings: Kato et al. Nat Chem Biol 2005; cited from earlier work
# [6] = system: cathepsin B; settings: Kato et al. Nat Chem Biol 2005; cited from earlier work
# [7] = target: cathepsin B (Homo sapiens, UniProt P07858); experiment: Kinetic inhibition study, cathepsin B; type: biochemical; settings: kinetic inhibition studies
# Description: (§1) We attached the chelator and radionuclide to the probe at the P1 lysine side-chain. By attaching the radiolabel to a side chain, it is less likely to interfere with the binding of the AOMK warhead to the active protease. Previous work has shown that the majority of critical substrate interactions take place in the P2 position of the papain family proteases.
# (§2) The kinetics of inhibition may be determined by progress curve method under pseudo-first order conditions with at least 10-fold molar excess of inhibitor. Recorded progress curves are analysed by non-linear regression according to the following equation (Bieth, J. G. Theoretical and practical aspects of proteinase inhibition kinetics. Methods Enzymol, 248, 59-84 (1995).) [P]=vz(1−e^−k·t)/k • where [P] is the product, vz is the velocity at time zero and k is the pseudo first order rate constant. Apparent rate constant (kapp) was determined from the slope of plot k versus [I]. […]
# (§3) Activity of human cathepsin L is measured using the fluorogenic substrate Z-FRAMC37 (Bachem, USA) (Km=7.1 μM) and cathepsin B is assayed against the fluorogenic substrate Z-RR-AMC38 (Bachem, USA) (Km=114 μM). […] Increase of fluorescence (370 nm excitation, 460 nm emission) is continuously monitored for 30 minutes by Spectramax M5 spectrofluorimeter. (Molecular Devices, USA) and inhibition curves were recorded. […]
# [8] = target: human cathepsin L (Homo sapiens, UniProt P07711); experiment: Kinetic inhibition study, cathepsin L; type: biochemical; settings: kinetic inhibition studies
# Description: as §1, §2, §3
# Sequence of human cathepsin L (P07711 114-333): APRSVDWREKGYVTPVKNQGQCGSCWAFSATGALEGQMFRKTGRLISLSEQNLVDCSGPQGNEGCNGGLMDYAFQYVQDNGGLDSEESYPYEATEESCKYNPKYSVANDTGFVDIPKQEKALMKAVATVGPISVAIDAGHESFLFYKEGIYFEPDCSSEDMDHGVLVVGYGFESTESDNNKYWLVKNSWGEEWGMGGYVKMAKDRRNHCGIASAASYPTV
molecule,measurement,setting,value
"Cc1cccc(C)c1C(=O)OCC(=O)[C@H](CCCCN)NC(=O)[C@H](Cc1ccccc1)NC(=O)[C@H](Cc1ccccc1)NC(=O)CN1CCN(CC(=O)O)CCN(CC(=O)O)CCN(CC(=O)O)CC1 [GB 172, DOTA-FFK-AOMK]",Tumor uptake in PET studies (in words),[1],overall probe uptake was very low
same,tumor uptake after 2 hrs,[1],0.41 ± 0.07
same,tumor uptake after 24 hours,[1],0.32 ± 0.04
JPM-OEt,Effect of inhibitor pretreatment on probe labeling of protease targets,"[2]; cells pretreated with 50 μM inhibitor, then labeled with 64Cu-Z-FK(DOTA)-AOMK",complete loss of labeling
"CC[N+]1=C(/C=C/C=C/C=C2\N(CCCCCC(=O)NCCCC[C@H](NC(=O)[C@H](Cc3ccccc3)NC(=O)[C@H](Cc3ccccc3)NC(=O)CN3CCN(CC(=O)O)CCN(CC(=O)O)CCN(CC(=O)O)CC3)C(=O)COC(=O)c3c(C)cccc3C)c3ccc(S(=O)(=O)O)cc3C2(C)C)C(C)(C)c2cc(S(=O)(=O)O)ccc21 [GB 170, DOTA-FFK(Cy5)-AOMK]",Tumor uptake in PET studies (in words),[1],dramatically increased uptake in tumor tissues
same,tumor uptake after 2 hrs,[1],3.17 ± 0.05
same,tumor uptake after 24 hours,[1],1.56 ± 0.23
CCN1C(=CC=CC=CC2=[N+](CCCCCC(=O)NCCCC[C@H](NC(=O)[C@H](Cc3ccccc3)NC(=O)OCc3ccccc3)C(=O)COC(=O)c3c(C)cccc3C)c3ccc(S(=O)(=O)O)cc3C2(C)C)C(C)(C)c2cc(S(=O)(=O)O)ccc21 [GB123],Cathepsin B and L activity of C2C12/Ras relative to MDA-MB-435 cells by probe labeling,[2]; cells labeled with Cy5-labeled probe,7.4 fold
"CC[N+]1=C(/C=C/C=C/C=C2\N(CCCCCC(=O)NCCCC[C@H](NC(=O)[C@H](Cc3ccccc3)NC(=O)[C@H](Cc3ccccc3)NC(=O)CN3CCN(CC(=O)O)CCN(CC(=O)O)CCN(CC(=O)O)CC3)C(N)=O)c3ccc(S(=O)(=O)O)cc3C2(C)C)C(C)(C)c2cc(S(=O)(=O)O)ccc21 [GB 173, DOTA-FFK(Cy5)-AOMK-Amide]",tumor uptake after 2 hrs,[1],1.71 ± 0.08
same,tumor uptake after 24 hours,[1],0.37 ± 0.13
Cc1cccc(C)c1C(=O)OCC(=O)[C@H](CCCCNC(=O)CN1CCN(CC(=O)O)CCN(CC(=O)O)CCN(CC(=O)O)CC1)NC(=O)[C@H](Cc1ccccc1)NC(=O)OCc1ccccc1 [Z-FK(DOTA)-AOMK],Biodistribution: Tumor,[3]; 2 h p.i.,0.30±0.03 % ID/g
same,Biodistribution: Tumor,[3]; 24 h p.i.,0.27±0.05 % ID/g
same,log P (octanol-water partition coefficient),[4],−0.10±0.04
Cc1cccc(C)c1C(=O)OCC(=O)[C@H](CCCNC(=N)N)NC(=O)[C@H](Cc1ccccc1)NC(=O)OCc1ccccc1 [Z-FR-AOMK],"Activity against cathepsins Z, H, J, C",[5],"not cathepsins Z, H, J, H or C; also recorded: not Cathepsin Z, H, J, C or H"
same,Activity against cathepsin B,[6],active only against cathepsin B; also recorded: inhibits cathepsin B
Cc1cccc(C)c1C(=O)OCC(=O)[C@H](CCCCN)NC(=O)[C@H](Cc1ccccc1)NC(=O)OCc1ccccc1 [NH2-GB11],Loss of potency for cathepsin B on modification of the P1 lysine,[7],30 fold
same,Loss of potency towards cathepsin L on modification of the P1 lysine,[8],100 fold
